The target of assay [1] is T1, Histone-lysine N-methyltransferase EHMT2 (Homo sapiens) (UniProt Q96KQ7).
T1 sequence (whole entry): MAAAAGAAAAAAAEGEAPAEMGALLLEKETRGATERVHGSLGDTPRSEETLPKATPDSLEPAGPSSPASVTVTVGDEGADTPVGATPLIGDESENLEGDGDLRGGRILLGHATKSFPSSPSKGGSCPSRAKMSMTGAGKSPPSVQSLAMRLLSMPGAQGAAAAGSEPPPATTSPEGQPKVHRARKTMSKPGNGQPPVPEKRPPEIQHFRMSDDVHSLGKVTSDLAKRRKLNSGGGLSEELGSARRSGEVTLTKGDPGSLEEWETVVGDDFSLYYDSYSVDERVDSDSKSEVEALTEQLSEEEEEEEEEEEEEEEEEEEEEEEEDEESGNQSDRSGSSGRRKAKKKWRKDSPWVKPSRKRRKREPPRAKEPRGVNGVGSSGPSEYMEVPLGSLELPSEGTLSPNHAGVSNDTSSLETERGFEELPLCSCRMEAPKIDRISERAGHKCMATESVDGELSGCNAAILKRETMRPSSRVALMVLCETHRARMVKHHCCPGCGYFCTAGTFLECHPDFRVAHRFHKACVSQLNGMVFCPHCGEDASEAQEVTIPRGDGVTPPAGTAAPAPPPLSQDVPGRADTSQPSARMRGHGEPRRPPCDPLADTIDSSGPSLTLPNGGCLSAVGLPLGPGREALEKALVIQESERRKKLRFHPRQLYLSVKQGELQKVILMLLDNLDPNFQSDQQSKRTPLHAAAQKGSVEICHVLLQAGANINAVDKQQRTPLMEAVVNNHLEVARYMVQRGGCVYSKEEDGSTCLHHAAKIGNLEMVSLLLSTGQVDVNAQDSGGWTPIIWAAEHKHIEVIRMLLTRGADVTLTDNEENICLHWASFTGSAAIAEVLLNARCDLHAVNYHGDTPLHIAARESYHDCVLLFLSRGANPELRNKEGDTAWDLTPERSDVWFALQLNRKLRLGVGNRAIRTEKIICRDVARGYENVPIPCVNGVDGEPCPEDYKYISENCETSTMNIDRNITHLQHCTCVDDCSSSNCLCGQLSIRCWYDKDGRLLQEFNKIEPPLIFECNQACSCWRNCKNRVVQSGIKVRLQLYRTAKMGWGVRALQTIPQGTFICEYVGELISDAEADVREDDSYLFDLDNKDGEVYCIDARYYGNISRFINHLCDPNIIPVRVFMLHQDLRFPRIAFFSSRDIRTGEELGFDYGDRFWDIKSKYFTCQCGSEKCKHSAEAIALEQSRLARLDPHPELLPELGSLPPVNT
In words: Inhibition of human G9a using Histone H3 and SAM as substrate at 10 uM by radiometric Hotspot assay.

Assay [2] deals with T2, Histone-lysine N-methyltransferase NSD2 (Homo sapiens) (UniProt O96028).
T2 sequence (whole entry): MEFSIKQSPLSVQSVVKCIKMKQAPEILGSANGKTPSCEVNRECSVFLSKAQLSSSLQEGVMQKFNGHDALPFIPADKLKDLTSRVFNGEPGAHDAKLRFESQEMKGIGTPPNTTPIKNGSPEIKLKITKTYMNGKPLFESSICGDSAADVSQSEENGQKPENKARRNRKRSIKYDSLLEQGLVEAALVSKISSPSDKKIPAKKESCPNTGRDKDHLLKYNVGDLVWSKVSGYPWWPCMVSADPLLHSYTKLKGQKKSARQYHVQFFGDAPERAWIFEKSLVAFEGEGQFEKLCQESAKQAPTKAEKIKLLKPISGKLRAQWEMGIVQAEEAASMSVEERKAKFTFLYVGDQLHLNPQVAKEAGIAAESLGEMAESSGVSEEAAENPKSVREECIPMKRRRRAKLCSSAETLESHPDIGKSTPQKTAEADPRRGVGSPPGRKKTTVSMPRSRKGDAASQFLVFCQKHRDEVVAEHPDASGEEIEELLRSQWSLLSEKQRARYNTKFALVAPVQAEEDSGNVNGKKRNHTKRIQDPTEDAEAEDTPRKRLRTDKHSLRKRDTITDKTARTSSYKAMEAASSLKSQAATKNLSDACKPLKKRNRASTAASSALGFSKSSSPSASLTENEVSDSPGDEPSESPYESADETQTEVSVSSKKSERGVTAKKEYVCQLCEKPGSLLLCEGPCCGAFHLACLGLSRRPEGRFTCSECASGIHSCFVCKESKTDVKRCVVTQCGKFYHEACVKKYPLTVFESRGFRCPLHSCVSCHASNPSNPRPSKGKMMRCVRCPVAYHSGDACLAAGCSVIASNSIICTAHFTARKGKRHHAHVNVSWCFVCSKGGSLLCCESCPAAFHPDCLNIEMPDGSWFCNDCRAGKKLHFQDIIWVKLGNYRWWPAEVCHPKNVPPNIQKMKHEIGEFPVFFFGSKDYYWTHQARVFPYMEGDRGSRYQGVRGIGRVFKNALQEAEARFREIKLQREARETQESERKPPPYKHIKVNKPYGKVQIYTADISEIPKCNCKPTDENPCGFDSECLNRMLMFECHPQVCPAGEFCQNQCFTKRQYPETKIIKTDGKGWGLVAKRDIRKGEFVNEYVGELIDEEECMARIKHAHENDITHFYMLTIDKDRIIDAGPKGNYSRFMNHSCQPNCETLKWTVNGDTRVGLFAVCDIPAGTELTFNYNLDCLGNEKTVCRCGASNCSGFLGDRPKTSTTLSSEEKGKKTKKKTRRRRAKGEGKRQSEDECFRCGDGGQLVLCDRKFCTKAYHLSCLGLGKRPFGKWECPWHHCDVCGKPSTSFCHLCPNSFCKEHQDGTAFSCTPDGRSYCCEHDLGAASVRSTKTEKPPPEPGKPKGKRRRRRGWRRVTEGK
Put plainly: Inhibition of human NSD2 using nucleosomes and SAM as substrate at 10 uM by radiometric Hotspot assay.

Assay [3] concerns the target T3, von Hippel-Lindau disease tumor suppressor/Histone-lysine N-methyltransferase, H3 lysine-79 specific (Homo sapiens, UniProt Q8TEK3+P40337). Put plainly: PROTAC activity at VHL/DOT1L in mixed-lineage leukemia rearranged (MLL-r) human THP-1 cells assessed as maximal induction of DOT1L degradation incubated for 24 hrs by western blot analysis relative to control. The format is cell-based.

Assay [4] has as its target T3, von Hippel-Lindau disease tumor suppressor/Histone-lysine N-methyltransferase, H3 lysine-79 specific. In words: PROTAC activity at VHL/DOT1L in mixed-lineage leukemia rearranged (MLL-r) human MV4-11 cells assessed as induction of DOTIL degradation by measuring fold change in DOT1L protein level at 3 uM incubated for 4 hrs by western blot analysis relative to control. It counts as cell-based.

Assay [5] shares this target. In words: PROTAC activity at VHL/DOTIL in mixed-lineage leukemia rearranged (MLL-r) human THP-1 cells assessed as induction of DOT1L degradation by measuring fold change in DOTIL protein level at 3 uM incubated for 24 hrs by western blot analysis relative to control. The format is cell-based.

The source made the active and inactive calls. The rule behind the calls is not given here.

T3 sequence (P40337 whole entry, looked up): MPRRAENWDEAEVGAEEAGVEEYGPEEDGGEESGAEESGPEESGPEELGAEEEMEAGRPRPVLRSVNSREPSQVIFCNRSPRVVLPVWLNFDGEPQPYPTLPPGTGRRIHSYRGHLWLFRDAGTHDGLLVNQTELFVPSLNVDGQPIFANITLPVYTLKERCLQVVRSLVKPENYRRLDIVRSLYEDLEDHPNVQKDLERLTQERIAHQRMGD
T3 sequence (Q8TEK3 whole entry, looked up): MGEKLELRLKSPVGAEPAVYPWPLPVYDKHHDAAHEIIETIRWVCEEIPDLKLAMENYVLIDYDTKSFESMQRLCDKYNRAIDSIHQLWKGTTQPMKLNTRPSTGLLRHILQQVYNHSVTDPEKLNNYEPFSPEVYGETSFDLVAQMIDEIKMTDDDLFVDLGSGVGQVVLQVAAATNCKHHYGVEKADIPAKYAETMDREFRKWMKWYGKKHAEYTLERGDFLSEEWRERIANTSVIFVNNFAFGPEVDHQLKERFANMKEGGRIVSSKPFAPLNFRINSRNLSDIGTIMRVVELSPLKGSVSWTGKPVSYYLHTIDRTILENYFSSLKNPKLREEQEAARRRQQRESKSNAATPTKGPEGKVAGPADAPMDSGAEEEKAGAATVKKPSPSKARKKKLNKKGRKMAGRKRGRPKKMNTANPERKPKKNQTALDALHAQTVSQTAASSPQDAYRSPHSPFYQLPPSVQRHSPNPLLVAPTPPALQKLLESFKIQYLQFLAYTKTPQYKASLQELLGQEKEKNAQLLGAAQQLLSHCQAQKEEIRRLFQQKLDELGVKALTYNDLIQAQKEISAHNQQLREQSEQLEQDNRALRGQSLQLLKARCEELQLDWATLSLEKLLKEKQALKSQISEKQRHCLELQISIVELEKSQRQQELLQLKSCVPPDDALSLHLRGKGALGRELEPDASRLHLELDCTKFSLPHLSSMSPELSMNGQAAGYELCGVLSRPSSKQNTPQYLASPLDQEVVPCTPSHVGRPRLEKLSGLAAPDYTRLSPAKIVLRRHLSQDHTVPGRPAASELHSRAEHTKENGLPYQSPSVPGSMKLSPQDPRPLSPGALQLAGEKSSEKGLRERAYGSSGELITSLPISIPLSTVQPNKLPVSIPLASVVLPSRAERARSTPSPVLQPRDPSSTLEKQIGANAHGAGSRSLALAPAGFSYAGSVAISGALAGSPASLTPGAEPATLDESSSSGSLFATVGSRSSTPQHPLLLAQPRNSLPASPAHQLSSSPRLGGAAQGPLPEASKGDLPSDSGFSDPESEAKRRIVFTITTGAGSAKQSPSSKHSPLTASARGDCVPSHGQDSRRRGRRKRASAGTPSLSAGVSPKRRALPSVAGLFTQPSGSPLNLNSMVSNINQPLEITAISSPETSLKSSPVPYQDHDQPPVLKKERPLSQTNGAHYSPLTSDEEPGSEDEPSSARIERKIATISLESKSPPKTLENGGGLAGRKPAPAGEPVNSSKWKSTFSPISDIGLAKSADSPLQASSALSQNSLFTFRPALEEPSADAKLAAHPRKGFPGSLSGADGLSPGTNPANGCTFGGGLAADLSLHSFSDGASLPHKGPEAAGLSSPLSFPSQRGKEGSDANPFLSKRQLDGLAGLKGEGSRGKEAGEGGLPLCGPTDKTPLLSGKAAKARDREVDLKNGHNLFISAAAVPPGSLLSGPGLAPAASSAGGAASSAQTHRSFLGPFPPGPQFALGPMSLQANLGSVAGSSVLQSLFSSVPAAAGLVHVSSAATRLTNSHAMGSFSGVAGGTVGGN

As to `Cc1ncsc1-c1ccc([C@H](CC(=O)NCCCCCCNC(=O)COc2nc(N)nc(Nc3cc(S(N)(=O)=O)ccc3N[C@@H](c3cccc4c3OC(F)(F)O4)c3ncccc3Cl)n2)NC(=O)[C@@H]2C[C@@H](O)CN2C(=O)[C@@H](NC(=O)C2(F)CC2)C(C)(C)C)cc1`, the inhibition result in assay [1] and in assay [2] was “inactive” in each case. Besides, in assay [3], the Activity is 69%. For the same compound, the results for the fold change (FC) in assay [4] and in assay [5] were 0.27 and 0.08, respectively.

For the origin of these results see ChEMBL document CHEMBL6182889, “Discovery of the first-in-class DOT1L PROTAC degrader” (Eur J Med Chem, 2025).
